Several values for one entry are separate records, joined by “and”; a condition that tells them apart may be missing. Equal entries are not always repeated.
Key:
[1] = Thermal aging of 85% solution of the distillate in water at 85 deg C. up to 28 days; format: physicochemical; conditions: for formic acid concentration, final sample / furfural concentration, final sample / APHA color, day 28 / formic acid concentration, initially / furfural concentration, initially / APHA color, time zero: 85% solution; for formic acid concentration, final sample / furfural concentration, final sample / APHA color, day 28: 85 deg C.; for formic acid concentration, final sample / furfural concentration, final sample: 28 days; for APHA color, day 28: day 28, final diluted (20%); for formic acid concentration, initially / furfural concentration, initially: initial; for APHA color, time zero: diluted (20%)
[2] = Distillation of crude isosorbide mixture with added antioxidant: co-distillation and initial distillate color; format: physicochemical; conditions: for initial APHA color of the neat distillate: neat distillate after distillation, ASTM D1209; for additive distilled with the isosorbide / recovered in the distillate by UPLC analysis: short path distillation, oil bath 185 to 195 degrees Celsius, less than 2 torr; for antioxidant recovered in the distillate, yield: co-distilled with isosorbide
Procedure: A 500 mL boiling flask equipped with a Teflon stir bar was charged with 100 g of ion-exchanged (strong acid cation/strong base anion-exchanged), dewatered, molten isosorbide. While stirring, 40.02 mg of 2,6-di-tert-butyl-4-methoxyphenol (DTMP), previously dissolved in 2 mL of absolute ethanol, was added via pipette, indicating the DTMP concentration as 400 ppm in the matrix. The flask was then outfitted with a still head, condenser, and receiver, placed under a vacuum of <2 torr, and placed in a digitally controlled oil bath. The bath was gradually heated to 190 degrees Celsius while maintaining a vacuum. At a bath temperature of approximately 155 degrees, isosorbide began to distill (vapor temperature of 150 deg C.). Continuous distillation occurred for approximately 30 minutes. 45.6 grams of clear, colorless isosorbide was collected, whose APHA color was measured as 6. Quantitative analysis by UPLC determined the concentration of DTMP in the distilled isosorbide to be 503 ppm.
In this as in subsequent examples, a quantity of an antioxidant under evaluation was dissolved in 1-2 mL of absolute ethanol and then added via pipette to a crude isosorbide mixture which had been treated previously to remove ionic species therefrom. Amounts were set so that the concentration of the antioxidant in the crude isosorbide mixture was in the range of from 250 to 900 ppm by weight. The stabilized crude isosorbide mixtures were then distilled in turn in a short path, jacketed distillation apparatus consisting of a 250 cc 3 neck boiling flask containing a PTFE magnetic stir bar in which one neck was fitted with a rubber septum, a thermocouple extended into the mixture being distilled from a central neck, and the third neck was equipped with the short path head leading to a boiling flask receiver maintained at 80 degrees Celsius. The boiling flask was immersed in an oil bath maintained at from 185 to 195 degrees Celsius, and distillation occurred under a vacuum pressure of less than 2 torr.

[3] = Thermal aging of neat distillate in 85 deg C. oven under air up to 28 days; format: physicochemical; conditions: for formic acid after 28 days / furfural after 28 days / APHA color after 28 days: 85 deg C.; for APHA color after 28 days: air, measured as a 20% solution; for APHA color, time zero: UV/vis; for color stability criteria after accelerated aging: 85 degrees Celsius, 4 weeks, APHA less than 200 neat distillate and less than 250 for 85% solution
Procedure: The DTMP-stabilized distillate was further tested for color storage stability by thermal aging over a more extended period of time, in particular, by preparing typically five 10 mL headspace vials of each of the neat distillate and an 85% solution of the distillate in water in 0.5 gram sample portions. One vial of the set of five for the neat distillate or the 85% solution was set aside as the “time zero” data point. The time zero sample was diluted with 2 mL of water and analyzed.
For the neat distillate, the APHA color of the time zero sample was less than 20 by UV/vis. All other decomposition products were less than 5 ppm. The four other vials of the neat distillate were then placed in an 85 deg C. oven trader air, and one vial was removed at 7 days, another at 14 days, another at 21 days, and the last of the four at 28 days. Once removed from the oven, each sample was allowed to cool to room temperature and diluted with 2 mL of water. The sample was then analyzed by UV/vis, UPLC, LC-MS, and GC. After 28 days, APHA color, measured as a 20% solution, was only 28. Furfural and formic acid were measured at 18 ppm and 39 ppm, respectively.
The BBTC-stabilized distillate was further tested for color storage stability by thermal aging over a more extended period of time, in particular, by preparing typically five 10 mL headspace vials of each of the neat distillate and an 85% solution of the distillate in water in 0.5 gram sample portions. One vial of the set of five for the neat distillate or the 85% solution was set aside as the “time zero” data point. The time zero sample was diluted with 2 mL of water and analyzed.
For the neat distillate, the APHA color of the time zero sample was less than 1 by UV/vis. Formic acid concentration in the time zero sample was less than 5 ppm, while furfural concentration was less than 1 ppm. The four other vials of the neat distillate were then placed in an 85 deg C. oven under air, and one vial was removed at 7 days, another at 14 days, another at 21 days, and the last of the four at 28 days. Once removed from the oven, each sample was allowed to cool to room temperature and diluted with 2 mL of water. Each sample was then analyzed by UV/vis, UPLC, LC-MS, and GC. After 28 days, APHA color, measured as a 20% solution, was 191. Furfural and formic acid were measured at 298 ppm and 6,102 ppm, respectively.

[4] = Heating of isosorbide distillate in 200° C. oil bath for 1 hr under air, APHA color by UV/vis; format: physicochemical; conditions: 0.5 g diluted with 2 mL water
Procedure: About, an 11 gram sample of the isosorbide distillate was added to a glass tube and capped with a septum. The glass tube was then submerged in a 200° C. oil bath for 1 hr under air. Approximately 0.5 g of the heated distillate sample was subsequently diluted with 2 mL of water and analyzed by UV/vis to obtain an APHA color value. An APHA color of approximately 250 was observed, compared to an APHA value for a distillate sample absent the DTMP additive that was offscale (>500).
About an 11 gram sample of the isosorbide distillate was added to a glass tube and capped with a septum. The glass tube was then submerged in a 200° C. oil bath for 1 hr under air.

[5] = Solubility and retention of stabilizer in isosorbide product; conditions: 85% solution isosorbide product
[6] = stable = formic acid less than 5 ppm and monoanhydrohexoses less than 50 ppm, dry weight basis; cited from earlier work

SMILES | formic acid concentration, final sample [1] [ppm] | furfural concentration, final sample [1] [ppm] | APHA color, day 28 [1] | formic acid concentration, initially [1] | furfural concentration, initially [1] | APHA color, time zero [1] | initial APHA color of the neat distillate [2] | additive distilled with the isosorbide / recovered in the distillate by UPLC analysis [2] | formic acid after 28 days ([3]; neat distillate) | furfural after 28 days ([3]; neat distillate) [ppm] | APHA color after 28 days ([3]; neat distillate) | formic acid concentration, time zero ([3]; neat distillate, time zero) | APHA color, time zero ([3]; neat distillate, time zero) | stability of composition according to the '477 patent [6] | further results
CCCC(c1cc(C(C)(C)C)c(O)cc1C)c1cc(C(C)(C)C)c(O)cc1C [BBTC, 4,4′-butylidenebis(6-t-butyl-m-cresol)] | 4264 | 298 | more than 500 | less than 5 ppm | less than 1 ppm | less than 1 | 10 | About 83% | 6,102 ppm | 298 | 191 | less than 5 ppm | less than 1 |  | furfural concentration, time zero ([3]; neat distillate, time zero): less than 1 ppm; APHA color after heating [4]: offscale
COc1ccc(O)c(C(C)(C)C)c1 [BHA, butylated hydroxyanisole] | 44 |  | 30 | less than 5 ppm |  | less than 1 | 14.1 and 14 | About 63% | 21 ppm |  | 40 | less than 5 ppm | less than 15 |  | antioxidant recovered in the distillate, yield [2]: 63%; color stability criteria after accelerated aging [3]: criteria were met; solubility in 85% solution product [5]: continued good solubility; APHA color after heating [4]: 222
Cc1cc(C(C)(C)C)c(O)c(C(C)(C)C)c1 [BHT] |  |  |  |  |  |  |  |  |  |  |  |  |  | stable | 
COc1cccc(OC)c1O [DMP, 2,6-dimethoxyphenol] |  |  |  |  |  |  | 18.7 |  |  |  |  |  |  |  | antioxidant recovered in the distillate, yield [2]: 64%; color stability criteria after accelerated aging [3]: met the criterion for either the neat distillate or the 85% solution product hut not for both
COc1cc(C(C)(C)C)c(O)c(C(C)(C)C)c1 [DTMP, 2,6-di-tert-butyl-4-methoxyphenol] | 250 | 88 | 150 |  | less than 5 ppm | 0 |  |  | 39 ppm | 18 | 28 |  | less than 20 |  | 5-hydroxymethylfurfural (HMF) formation ([1]; 85% stabilized sample, aged): < 5 ppm; concentration of additive in the distilled isosorbide by UPLC ([2]; 400 ppm in the matrix before distillation): 503 ppm; antioxidant recovered in the distillate, yield [2]: 50%; color stability criteria after accelerated aging [3]: met the criterion for either the neat distillate or the 85% solution product hut not for both; all other decomposition products, time zero ([3]; neat distillate, time zero): less than 5 ppm; 5-hydroxymethylfurfural (HMF) formation ([3]; neat stabilized sample, aged): < 5 ppm; APHA color after heating [4]: approximately 250
O=P([O-])([O-])O.[Na+].[Na+] [Na2HPO4] |  |  |  |  |  |  |  |  |  |  |  |  |  | stable | 
O=B[O-].[Na+] [NaBO2] |  |  |  |  |  |  |  |  |  |  |  |  |  | stable | 
[Na+].[OH-] [NaOH] |  |  |  |  |  |  |  |  |  |  |  |  |  | stable | 
CC(C)(C)c1cc(O)ccc1O [TBHQ, tert-butylhydroquinone] | 770 | 257 | more than 500 | less than 5 ppm | less than 1 ppm | less than 1 |  | Virtually a quantitative recovery | 3458 ppm | 182 | 233 | less than 5 ppm | 110 |  | furfural concentration, time zero ([3]; neat distillate, time zero): less than 1 ppm
Cc1c(C)c2c(c(C)c1O)CCC(C)(C(=O)O)O2 (stereo not shown) [Trolox™, 6-hydroxy-2,5,7,8-tetramethylchromane-2-carboxylic acid] | 3360 | 512 | more than 500 | less than 5 ppm | less than 1 ppm | 5 | 15 | About 26% | 3291 ppm | 460 | over 500 | less than 5 ppm | 15 |  | furfural concentration, time zero ([3]; neat distillate, time zero): less than 1 ppm; rate of color formation compared to control vials containing distillate alone ([3]; thermal aging, stabilized samples vs control): developed color more quickly
C1COCCN1 [morpholine] |  |  |  |  |  |  |  |  |  |  |  |  |  | stable | 
O=C1O[C@H]([C@@H](O)CO)C(O)=C1O [vitamin C] |  |  |  |  |  |  |  |  |  |  |  |  |  | stable | 

Source: patent US9266900B2, “Additives for improved isohexide products” (ARCHER DANIELS MIDLAND COMPANY, priority 2012, dated 2016)
